Test results published in ChEMBL document CHEMBL1201862, “PubChem BioAssay data set” (2004).
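A five-concentration, 48-hour dose response in 96-well plates underlies each endpoint, interpolated linearly between surrounding concentrations. GI50 = concentration required for 50% inhibition of growth.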 Activity calls are given as the source filed them. No stated cut-off is given here; in the data, active = GI50 up to about 1.1 µM and inactive = higher.

Tests used:
Test in all cases: growth of human tumour cells (NCI), 48 h
CAKI-1 = tested on: CAKI-1
HCT-15 = tested on: HCT-15
KM12 = tested on: KM12
M14 = tested on: M14
NCI-H226 = tested on: NCI-H226
NCI-H460 = tested on: NCI-H460
SF-295 = tested on: SF-295
SF-539 = tested on: SF-539
SN12C = tested on: SN12C
TK-10 = tested on: TK-10
UACC-62 = tested on: UACC-62
A498 = tested on: A498
K562 = tested on: K562
OVCAR-5 = tested on: OVCAR-5

SMILES | GI50 (CAKI-1) | GI50 (HCT-15) | GI50 (KM12) | GI50 (M14) | GI50 (NCI-H226) | GI50 (NCI-H460) | GI50 (SF-295) | GI50 (SF-539) | GI50 (SN12C) | GI50 (TK-10) | GI50 (UACC-62) | GI50 (A498) | GI50 (K562) | GI50 (OVCAR-5)
COC(=O)C(=O)C(C(=O)C(=O)Nc1cc([N+](=O)[O-])ccc1C#N)c1nc2ccccc2nc1O (stereo not drawn) | > 100 µM (inactive) | > 100 µM | > 100 µM (inactive) | > 100 µM (inactive) | > 100 µM (inactive) | > 100 µM (inactive) | > 100 µM (inactive) | > 100 µM (inactive) | > 100 µM (inactive) | > 100 µM (inactive) | > 100 µM (inactive) | – | – | –
NC(=S)N/N=C1\C(=O)N(CCc2ccccc2)C(=O)C1C(=O)NCCc1ccccc1 (stereo not drawn) | > 100 µM (inactive) | > 100 µM | > 100 µM (inactive) | > 100 µM (inactive) | > 100 µM (inactive) | > 100 µM (inactive) | > 100 µM (inactive) | > 100 µM (inactive) | > 100 µM (inactive) | > 100 µM (inactive) | > 100 µM (inactive) | > 100 µM (inactive) | > 100 µM (inactive) | > 100 µM (inactive)
COC(=O)c1c(N)n[nH]c1N | > 100 µM (inactive) | – | > 100 µM (inactive) | > 100 µM (inactive) | – | > 100 µM (inactive) | > 100 µM (inactive) | > 100 µM (inactive) | > 100 µM (inactive) | > 100 µM (inactive) | 77.6 µM (inactive) | > 100 µM (inactive) | > 100 µM (inactive) | –
Cc1ccc(/C=C2\CCCCC2=O)cc1 | 42.7 µM (inactive) | > 100 µM | – | 49.9 µM (inactive) | – | 80.9 µM (inactive) | > 100 µM (inactive) | > 100 µM (inactive) | 97.5 µM (inactive) | > 100 µM (inactive) | > 100 µM (inactive) | > 100 µM (inactive) | 25.7 µM (inactive) | –
CC(CCc1ccc2c(c1)c(N)c1ccc(N)cc1[n+]2[O-])CC(C)(C)C (stereo not drawn) | 1.47 µM (inactive) | 4.26 µM | 1.99 µM (inactive) | 1.75 µM (inactive) | 1.85 µM (inactive) | 0.597 µM (active) | 1.76 µM (inactive) | 1.93 µM (inactive) | 1.79 µM (inactive) | 1.83 µM (inactive) | 1.45 µM (inactive) | 1.89 µM (inactive) | 0.621 µM (active) | 1.48 µM (inactive)
CN(CC1NCCCC1O)C12CC3CC(CC(C3)C1)C2 (stereo not drawn) | > 100 µM (inactive) | > 100 µM | > 100 µM (inactive) | > 100 µM (inactive) | > 100 µM (inactive) | > 100 µM (inactive) | > 100 µM (inactive) | > 100 µM (inactive) | > 100 µM (inactive) | > 100 µM (inactive) | > 100 µM (inactive) | > 100 µM (inactive) | 70.8 µM (inactive) | > 100 µM (inactive)
CC1=C(C(=O)Nc2ccccc2)C(c2ccc(C(C)C)cc2)C(C(=O)Nc2ccccc2)=C(C)N1 | 21.9 µM (inactive) | 14.8 µM | 22.2 µM (inactive) | 18.2 µM (inactive) | 21.3 µM (inactive) | 18.9 µM (inactive) | 37.9 µM (inactive) | 12.8 µM (inactive) | 13.6 µM (inactive) | 48.2 µM (inactive) | 13.6 µM (inactive) | 24 µM (inactive) | 12.1 µM (inactive) | 17.3 µM (inactive)
CCc1ccccc1NC(=O)CC1NC(=O)CS1 (stereo not drawn) | > 100 µM (inactive) | – | > 100 µM (inactive) | > 100 µM (inactive) | > 100 µM (inactive) | > 100 µM (inactive) | > 100 µM (inactive) | > 100 µM (inactive) | > 100 µM (inactive) | > 100 µM (inactive) | > 100 µM (inactive) | > 100 µM (inactive) | > 100 µM (inactive) | > 100 µM (inactive)
CCCOP1(=O)C=C(C)C(Cl)=C(C)C1 (stereo not drawn) | – | 20 µM | 19.1 µM (inactive) | 15.3 µM (inactive) | 20.9 µM (inactive) | 31.2 µM (inactive) | 25.2 µM (inactive) | 25.7 µM (inactive) | 20.2 µM (inactive) | 23.1 µM (inactive) | 15 µM (inactive) | – | 24.7 µM (inactive) | 29.8 µM (inactive)
COc1cc(Cl)c2c3c(c(C(=O)c4ccccc4)oc13)CCC2 | > 100 µM (inactive) | > 100 µM | – | > 100 µM (inactive) | – | > 100 µM (inactive) | > 100 µM (inactive) | > 100 µM (inactive) | > 100 µM (inactive) | > 100 µM (inactive) | > 100 µM (inactive) | > 100 µM (inactive) | 41.7 µM (inactive) | –
COc1cc2c(cc1O)C1C(O)C(O)C=C3CCN(C2)C31 (stereo not drawn) | 1.9 µM (inactive) | 3.61 µM | 2.05 µM (inactive) | 1.79 µM (inactive) | 2.55 µM (inactive) | 1.83 µM (inactive) | 2.31 µM (inactive) | 2.09 µM (inactive) | 2.84 µM (inactive) | 2.65 µM (inactive) | 1.69 µM (inactive) | – | 2.51 µM (inactive) | 4.39 µM (inactive)
CC1(C)c2ccccc2N2C(c3ccccc3)=NOC21C (stereo not drawn) | > 100 µM (inactive) | > 100 µM | > 100 µM (inactive) | > 100 µM (inactive) | > 100 µM (inactive) | > 100 µM (inactive) | > 100 µM (inactive) | > 100 µM (inactive) | > 100 µM (inactive) | > 100 µM (inactive) | > 100 µM (inactive) | > 100 µM (inactive) | > 100 µM (inactive) | > 100 µM (inactive)
CCOC(=O)/C(O)=C(/c1n[nH]c(=O)c2ccccc12)[N+](=O)[O-] | – | > 100 µM | > 100 µM (inactive) | > 100 µM (inactive) | > 100 µM (inactive) | > 100 µM (inactive) | > 100 µM (inactive) | > 100 µM (inactive) | > 100 µM (inactive) | > 100 µM (inactive) | > 100 µM (inactive) | > 100 µM (inactive) | > 100 µM (inactive) | > 100 µM (inactive)
Cc1cc(Cl)ccc1NC(=O)C1C(=O)N(c2ccc(Cl)cc2C)C(=O)/C1=N\N (stereo not drawn) | 35.6 µM (inactive) | 34.8 µM | 25.4 µM (inactive) | 61.2 µM (inactive) | 27 µM (inactive) | 51.6 µM (inactive) | 28.9 µM (inactive) | 44.6 µM (inactive) | 36.6 µM (inactive) | 34.3 µM (inactive) | 35.8 µM (inactive) | 28.3 µM (inactive) | 45.1 µM (inactive) | 60.5 µM (inactive)
Cc1c2n(c(=O)[nH]c1=O)C1OC(CO)C(N=[N+]=[N-])C1O2 (stereo not drawn) | > 100 µM (inactive) | > 100 µM | > 100 µM (inactive) | – | > 100 µM (inactive) | > 100 µM (inactive) | > 100 µM (inactive) | > 100 µM (inactive) | > 100 µM (inactive) | > 100 µM (inactive) | > 100 µM (inactive) | > 100 µM (inactive) | 92.5 µM (inactive) | –
C[C@]12CC[C@H](O)CC1CCC[C@@H]2O (stereo partly drawn) | > 100 µM (inactive) | > 100 µM | > 100 µM (inactive) | > 100 µM (inactive) | – | > 100 µM (inactive) | > 100 µM (inactive) | > 100 µM (inactive) | > 100 µM (inactive) | > 100 µM (inactive) | > 100 µM (inactive) | > 100 µM (inactive) | > 100 µM (inactive) | –
CCO/C=C1\N=C(c2ccc(Cl)c(Cl)c2)OC1=O | > 100 µM (inactive) | > 100 µM | > 100 µM (inactive) | > 100 µM (inactive) | 30.5 µM (inactive) | > 100 µM (inactive) | > 100 µM (inactive) | > 100 µM (inactive) | > 100 µM (inactive) | > 100 µM (inactive) | > 100 µM (inactive) | 27 µM (inactive) | > 100 µM (inactive) | > 100 µM (inactive)
O=c1c2ccccc2c2nc3ccccc3nc2n1C1CCCCC1 | > 100 µM (inactive) | > 100 µM | > 100 µM (inactive) | – | > 100 µM (inactive) | – | 95.3 µM (inactive) | > 100 µM (inactive) | > 100 µM (inactive) | > 100 µM (inactive) | > 100 µM (inactive) | – | > 100 µM (inactive) | > 100 µM (inactive)
COC(=O)C1=C(C(=O)OC)C2(c3ccccc3)OC1(c1ccccc1)c1cc3ccccc3cc12 | 1.29 µM (inactive) | 1.82 µM | 1.97 µM (inactive) | 1.79 µM (inactive) | – | 3.56 µM (inactive) | 6.28 µM (inactive) | 1.67 µM (inactive) | 1.9 µM (inactive) | 2.05 µM (inactive) | 1.85 µM (inactive) | – | 1.51 µM (inactive) | 1.91 µM (inactive)
CC(=O)O[C@H]1C(=O)[C@@]2(C)C([C@H](OC(=O)c3ccccc3)[C@]3(O)C[C@H](OC(=O)[C@H](O)[C@H](NC(=O)c4ccccc4)c4ccc(Cl)cc4)C(C)=C1C3(C)C)C1(OC(C)=O)CO[C@@H]1C[C@@H]2O (stereo partly drawn) | 0.151 µM (active) | 0.516 µM | 0.000282 µM (active) | 0.00224 µM (active) | 0.00229 µM (active) | 0.000557 µM (active) | 0.0194 µM (active) | 0.000367 µM (active) | 0.000841 µM (active) | 0.0226 µM (active) | 0.000376 µM (active) | 0.0256 µM (active) | 0.000807 µM (active) | 0.00294 µM (active)
c1ccc(C(c2ccccc2)c2ccccn2)cc1 | > 100 µM (inactive) | > 100 µM | > 100 µM (inactive) | > 100 µM (inactive) | > 100 µM (inactive) | > 100 µM (inactive) | > 100 µM (inactive) | > 100 µM (inactive) | > 100 µM (inactive) | > 100 µM (inactive) | > 100 µM (inactive) | > 100 µM (inactive) | > 100 µM (inactive) | > 100 µM (inactive)
